Measured values reported in patent US8771983B2, “Method and kit for expressing protein under regulation of the expression from repeated sequence formed by gene amplification, and transformant” (National University of Corporation Hiroshima University, priority 2004, dated 2014).

Assays:
[1] = tested on: expression of d2EGFP in human colon cancer cell COLO 320DM cells; test: Level of expression of d2EGFP by cell sorter after selection with stepwise increasing Blasticidin concentrations (Example 3); assay type: cell-based; details: 1 μg/ml Doxycycline
Method: (§1) Fluorescence intensity of these cells were measured by using a cell sorter. The measurement was carried out by sorting 20,000 cells by setting living cells at a gate. The cell sorter used was made by Becton Dickinson, and operated under conditions as described in the manual attached thereto.
(§2) In this method for detecting the fluorescence intensity, detection limit was 1, and all fluorescence intensities of 1 or less would be detected as 1. In view of this, a product of a ratio (cell %) of cells of fluorescence intensities of 2 or more in all living cells (10,000 cells) and an average of the fluorescence intensities of the cells having fluorescence intensities of 2 or more was calculated out for each experimental plot. This product is referred to as “accumulated fluorescence intensity” hereinafter and in later Examples and shown in boxed letter in the figures.
A plasmid (pSFVdhfr/d2EGFP) was transfected into human colon cancer cell COLO 320DM cells by lipofection. The plasmid (pSFVdhfr/d2EGFP) was a plasmid having (a) IR and MAR derived from human DHFR gene locus, (b) Blasticidin tolerance gene, and (c) d2EGFP gene that was under control of TRE-promoter (Tetracycline inducing promoter). The transformed cells were selected with 5 μg/ml of Blasticidin (Funakoshi Corp.) thereby obtaining many transformed clones. After the clones were mixed, the culturing was continued. […] Cells select with the respective Blasticidin concentrations were treated with 1 μg/ml of Doxycycline (Clontech Laboratories Inc.) added to the media so as to activate TRE-promoter and thereby inducing expression of d2EGFP (whose half-life is much shorter than general EGFP.

[2] = tested on: expression of d2EGFP in human colon cancer COLO 320DM cells; test: Change over time of d2EGFP expression after induction with Doxycycline in cells cotransfected with pSFVdhfr/d2EGFP and pTet-ON plasmid (Example 8); assay type: cell-based; details: polyclonal population
Method: as §1, §2
An equimolar mixture of a plasmid (pSFVdhfr/d2EGFP) and pTet-ON plasmid (Clontech Laboratories Inc.) was simultaneously transfected into human colon cancer COLO 320DM cells. The plasmid (pSFVdhfr/d2EGFP) was a plasmid having (a) IR and MAR derived from human DHFR gene locus, (b) Blasticidin tolerance gene, and (c) d2EGFP gene that was under control of TRE-promoter (Tetracycline inducing promoter). Meanwhile, the pTet-ON plasmid was a plasmid having Tet-ON gene encoding the transcription activating factor (Tet-ON protein) of TRE-promoter. The cells were selected with 5 μg/ml of Blasticidin thereby obtaining a polyclonal population of transformed cells. TRE-promoter was activated by adding 1 μg/ml of Doxycycline (Clontech Laboratories Inc.) in the medium of a cell culturing solution of the polyclonal population, thereby inducing the expression of d2EGFP.
Next, after the expression of d2EGFP was induced by Doxycycline, the level of the expression of d2EGFP was analyzed by using a cell sorter so as to find a change in the level of the expression of d2EGFP over time. […] In FIG. 16, the value in parenthesis is an average of fluorescence intensities (i.e., average fluorescence intensity), and boxed value is an accumulated fluorescence intensity.
FIG. 17 illustrates a graph plotting the averages (i.e., average fluorescence intensities: indicated by filled circles in FIG. 17) and living cell ratio (a ratio of living cells over total cell number: indicated by open circles) of the level of the expression of d2EGFP against time. […] The level was maintained high even after two weeks lapsed (labeled as “2wk” in FIG. 17).

[3] = tested on: expression of d2EGFP in Tet-ON cells (COLO 320DM) transfected with pSFVdhfr/d2EGFP; test: Level of expression of d2EGFP by cell sorter in HSR and DM clones of Tet-ON cells with 5-aza (Example 7); assay type: cell-based, human; details: polyclonal population of Tet-ON cells with pSFVdhfr/d2EGFP; 5 μg/ml of Doxycycline
Method: as §1, §2
By lipofection, the pTet-ON plasmid (Clontech Laboratories Inc.) having Tet-ON gene encoding a transcription activating factor (Tet-ON protein) for promoting TRE-promoter was transfected into human colon cancer COLO 320DM. Transformed cells (hereinafter referred to as “Tet-ON cells”) which stably expressed Tet-ON protein, were selected with Hygromycin.
Next, the pSFVdhfr/d2EGFP plasmid was transfected into the Tet-ON cells by lipofection. The cells thus obtained were selected with 5 μg/ml of Blasticidin for approximately 3 weeks, thereby obtaining a polyclonal population of the stable transformed cells.
The expression of d2EGFP was induced in the polyclonal population by activating TRE-promoter by adding 5 μg/ml of Doxycycline (Clontech Laboratories Inc.) in the medium. FIG. 9 illustrates a result of analysis of the level of the expression of d2EGFP in this case by using a cell sorter. In FIG. 9, the value in parenthesis is an average of fluorescence intensities (i.e., average fluorescence intensity), and boxed value is an accumulated fluorescence intensity. Based on the result of FIG. 9, it was confirmed that the polyclonal population was a population for expressing d2EGFP (average fluorescence intensity: 6.25, accumulated fluorescence intensity: 536).
From the polyclonal population, given 30 clones were obtained by a limiting dilution method that was carried out by inoculating a clone to 6 well plates with such a low cell concentration of 30 cells/ml, and incubating the plates for 10 days to 2 weeks thereby obtaining colonies thereon.
From among the clones, 4 clones having high levels of expression of d2EGFP (Clone 4, Clone 5, Clone 6, and Clone 9) were selected by fluorescence microscopic observation. Mitotic chromosome samples of the 4 clones were prepared. By FISH method, detection for a base sequence derived from the transfected pSFVdhfr/d2EGFP plasmid was carried out. The preparation of mitotic chromosome samples and the FISH method were carried out as described in Shimizu, N., Kanda, T., and Wahl, G. M. Selective capture of acentric fragments by micronuclei provides a rapid method of purifying extrachromosomally amplified DNA. Nature Genet., 12: 65-71, 1996.
For 4 clones, induction with Doxycycline (Clontech Laboratories Inc.; 1 μg/ml) was carried out and 5-aza (0 μM, 1 μM or 3 μM) was added in the medium. After 1 week culturing, the level of expression of d2EGFP in each clone was analyzed by using a cell sorter.

[4] = tested on: expression of d2EGFP in human colon cancer cells COLO 320DM cells; test: Level of expression of d2EGFP after treatment of cells with 5-aza-2′-deoxycytidine and/or Trichostatin A (Example 6); assay type: cell-based
Method: as §1, §2
A mixture of a plasmid (pSFVdhfr/d2EGFP) and the plasmid DNA having the Aves-derived HS4 insulator sequence was transfected to human colon cancer cells COLO 320DM cells by lipofection. The plasmid (pSFVdhfr/d2EGFP) was a plasmid having (a) IR and MAR derived from human DHFR gene locus, (b) Blasticidin tolerance gene, and (c) d2EGFP gene that was under control of TRE-promoter (Tetracycline inducing promoter). The plasmid DNA having the Aves-derived HS4 insulator sequence was identical with the one described in Example 2. From 2 days later since the gene transfection, the cells were selected with 5 μg/ml of Blasticidin (Funakoshi Corp.). After 3 to 4 weeks, many colonies of transformed cells were obtained.
Into a culture solution of the transformed cells, of 1 μM or 3 μM of 5-aza-2′ deoxycytidine (hereinafter referred to as “5-aza” where appropriate; Sigma) was added. Thereby, the cells were treated with 5-aza for 3 days. For comparison purposes, 20 nM of Trichostatin A (hereinafter referred to as “TSA” where appropriate; histone deacetylation inhibitor, Sigma), which is known as a material for increasing gene expression from the repeated sequence, was added to some culture solutions of the transformed cells and analyzed.

[5] = pSFVdhfr/d2EGFP cells selected with 5 μg/ml of Blasticidin
[6] = pSFVdhfr/d2EGFP cells selected with 40 μg/ml of Blasticidin
[7] = pSFVdhfr/d2EGFP cells selected with 160 μg/ml of Blasticidin
[8] = pSFVdhfr/d2EGFP cells selected with 320 μg/ml of Blasticidin
[9] = fifteen hours after the addition of Doxycycline (1 μg/ml)
[10] = forty eight hours (2 days) after the addition of Doxycycline (1 μg/ml)
[11] = one hour after the addition of Doxycycline (1 μg/ml)
[12] = one hundred twenty hours (5 days) after the addition of Doxycycline (1 μg/ml)
[13] = six hours after the addition of Doxycycline (1 μg/ml)
[14] = three hours after the addition of Doxycycline (1 μg/ml)
[15] = twenty four hours after the addition of Doxycycline (1 μg/ml)
[16] = two weeks after the addition of Doxycycline (1 μg/ml)

CN(CC[C@H](N)CC(=O)N[C@H]1C=C[C@H](n2ccc(N)nc2=O)O[C@@H]1C(=O)O)C(=N)N [Blasticidin]
average fluorescence intensity ([1]; pSFVdhfr/d2EGFP cells selected with 10 ng/ml of Blasticidin): 3.77 | accumulated fluorescence intensity [1, 5]: 222 | average fluorescence intensity [1, 5]: 2.94 | accumulated fluorescence intensity [1, 6]: 640 | average fluorescence intensity [1, 6]: 6.67 | accumulated fluorescence intensity [1, 7]: 929 | average fluorescence intensity [1, 7]: 9.47 | accumulated fluorescence intensity [1, 8]: 1850 | average fluorescence intensity [1, 8]: 18.55

C[C@H]1c2cccc(O)c2C(=O)C2=C(O)[C@]3(O)C(=O)C(C(N)=O)=C(O)[C@@H](N(C)C)[C@@H]3[C@@H](O)[C@@H]21 [Doxycycline]
accumulated fluorescence intensity [2, 9]: 841 | average fluorescence intensity [2, 9]: 9.24 | accumulated fluorescence intensity [2, 10]: 5320 | average fluorescence intensity [2, 10]: 53.97 | accumulated fluorescence intensity [2, 11]: 216 | average fluorescence intensity [2, 11]: 2.99 | accumulated fluorescence intensity [2, 12]: 3880 | average fluorescence intensity [2, 12]: 39.56 | survival ratio of the cells (living cell ratio) ([2]; expression of d2EGFP induced by Doxycycline, up to two weeks): no decrease in the survival ratio | accumulated fluorescence intensity [2, 13]: 341 | average fluorescence intensity [2, 13]: 4.22 | accumulated fluorescence intensity [2, 14]: 293 | average fluorescence intensity [2, 14]: 3.72 | accumulated fluorescence intensity [2, 15]: 2800 | average fluorescence intensity [2, 15]: 28.77 | accumulated fluorescence intensity [2, 16]: 3500 | average fluorescence intensity [2, 16]: 35.32 | accumulated fluorescence intensity [3]: 536 | average fluorescence intensity [3]: 6.25

CC(/C=C/C(=O)NO)=C\[C@@H](C)C(=O)c1ccc(N(C)C)cc1 [TSA, Trichostatin A]
accumulated fluorescence intensity ([4]; 20 nM of TSA): 228 | average fluorescence intensity ([4]; 20 nM of TSA): 3.02 | effect on the expression of the target protein ([4]; 20 nM of TSA versus cells before treatment): cannot increase the expression of the target protein
